The values below come from patent publication US7683048B2, “Polymorphis of a known thiophenecarboxylic acid dodecahydrocyclopenta (a) phenanthrenyl ester” (Novartis AG, priority 2002, dated 2010).

Format in all cases: physicochemical
A short description of series [1]: Stability of crystal forms after 4 weeks at 80° C., analyzed by XRPD. The settings on record: for Conversion in the solid state on storage: stored for 4 weeks at 80° C.; for Crystal form found by XRPD after storage (stability): 4 weeks at 80° C. The method, then:
Samples of the compound of formula I in crystal form A, the compound of formula I in crystal form B, a mixture of both crystal forms and an amorphous form of the compound of formula I (obtained by spray drying) are stored for 4 weeks at 80° C. under different conditions and analyzed by X-ray powder diffraction (XRPD).

Series [2] is described as follows: Interconversion of crystal forms in the presence of solvent.
Series [3] in a line: Heat of solution at 25° C. in acetone. The method, then: The heat of solution of samples of crystal forms A and B of the compound of formula I are measured at 25° C. in acetone.

In the case of `COC(=O)[C@@]1(OC(=O)c2sccc2C)[C@H](C)CC2C3C[C@H](F)C4=CC(=O)C=C[C@]4(C)[C@@]3(Cl)[C@@H](O)C[C@@]21C` (stereo partly drawn) [Amorphous form, 3-methylthiophene-2-carboxylic acid (6S,9R,10S,11S, 13S,16R,17R)-9-chloro-6-fluoro-11-hydroxy-17-methoxycarbonyl-10,13,16-trimethyl-3-oxo-6,7,8,9,10,11,12,13,14,15,16,17-dodecahydro-3H-cyclopenta[a]phenanthren-17-yl ester], the “Conversion in the solid state on storage” value in series [1] (solid state, listed as amorphous form) is recorded as “can also convert into crystal form A”.
As for `COC(=O)[C@@]1(OC(=O)c2sccc2C)[C@H](C)CC2C3C[C@H](F)C4=CC(=O)C=C[C@]4(C)[C@@]3(Cl)[C@@H](O)C[C@@]21C` (stereo partly drawn) [Crystal form A, 3-methylthiophene-2-carboxylic acid (6S,9R,10S,11S, 13S,16R,17R)-9-chloro-6-fluoro-11-hydroxy-17-methoxycarbonyl-10,13,16-trimethyl-3-oxo-6,7,8,9,10,11,12,13,14,15,16,17-dodecahydro-3H-cyclopenta[a]phenanthren-17-yl ester], the “Conversion of crystal form in the presence of ethanol” value in series [2] (in the presence of ethanol) was “converts to crystal form B”. The “Relative thermodynamic stability (from storage test)” value in series [1] (solid state, versus crystal form B) is recorded as “more thermodynamically stable than crystal form B”. In series [3] (listed as A), the Heat of solution is 29.3 J/g. Also, in series [3] (versus crystal form B), the “Relative thermodynamic stability (from heat of solution)” value is on record as “more thermodynamically stable than crystal form B”.
As to `COC(=O)[C@@]1(OC(=O)c2sccc2C)[C@H](C)CC2C3C[C@H](F)C4=CC(=O)C=C[C@]4(C)[C@@]3(Cl)[C@@H](O)C[C@@]21C` (stereo partly drawn) [Crystal form B, 3-methylthiophene-2-carboxylic acid (6S,9R,10S,11S, 13S,16R,17R)-9-chloro-6-fluoro-11-hydroxy-17-methoxycarbonyl-10,13,16-trimethyl-3-oxo-6,7,8,9,10,11,12,13,14,15,16,17-dodecahydro-3H-cyclopenta[a]phenanthren-17-yl ester], the “Conversion of crystal form in the presence of isopropanol” value in series [2] (in the presence of isopropanol) is on record as “converts to crystal form A”. The “Crystal form found by XRPD after storage (stability)” value in series [1] (75% r.h. (relative humidity), open) is listed as “A + B”; in series [1] (N2 + 2% water), “A + B”; in series [1] (O2), “A + B”. Further, the “Conversion in the solid state on storage” value in series [1] (solid state, listed as crystal form B) is recorded as “can convert at least partially in the solid state into crystal form A”. This molecule also displayed a Heat of solution in series [3] (listed as B) of 17.9 J/g.
For the molecule `COC(=O)[C@@]1(OC(=O)c2sccc2C)[C@H](C)CC2C3C[C@H](F)C4=CC(=O)C=C[C@]4(C)[C@@]3(Cl)[C@@H](O)C[C@@]21C` (stereo partly drawn) [Crystal forms A + B, 3-methylthiophene-2-carboxylic acid (6S,9R,10S,11S, 13S,16R,17R)-9-chloro-6-fluoro-11-hydroxy-17-methoxycarbonyl-10,13,16-trimethyl-3-oxo-6,7,8,9,10,11,12,13,14,15,16,17-dodecahydro-3H-cyclopenta[a]phenanthren-17-yl ester], the “Crystal form found by XRPD after storage (stability)” value in series [1] (N2) and in series [1] (sealed) was “A + B” throughout.
